Active and inactive are the calls of the source. No cut-off for these calls is given here.
Legend:
[1] = molecular target: T1, Glucocorticoid receptor (Homo sapiens) (UniProt P04150); details: Huh-7
T1 sequence (whole entry): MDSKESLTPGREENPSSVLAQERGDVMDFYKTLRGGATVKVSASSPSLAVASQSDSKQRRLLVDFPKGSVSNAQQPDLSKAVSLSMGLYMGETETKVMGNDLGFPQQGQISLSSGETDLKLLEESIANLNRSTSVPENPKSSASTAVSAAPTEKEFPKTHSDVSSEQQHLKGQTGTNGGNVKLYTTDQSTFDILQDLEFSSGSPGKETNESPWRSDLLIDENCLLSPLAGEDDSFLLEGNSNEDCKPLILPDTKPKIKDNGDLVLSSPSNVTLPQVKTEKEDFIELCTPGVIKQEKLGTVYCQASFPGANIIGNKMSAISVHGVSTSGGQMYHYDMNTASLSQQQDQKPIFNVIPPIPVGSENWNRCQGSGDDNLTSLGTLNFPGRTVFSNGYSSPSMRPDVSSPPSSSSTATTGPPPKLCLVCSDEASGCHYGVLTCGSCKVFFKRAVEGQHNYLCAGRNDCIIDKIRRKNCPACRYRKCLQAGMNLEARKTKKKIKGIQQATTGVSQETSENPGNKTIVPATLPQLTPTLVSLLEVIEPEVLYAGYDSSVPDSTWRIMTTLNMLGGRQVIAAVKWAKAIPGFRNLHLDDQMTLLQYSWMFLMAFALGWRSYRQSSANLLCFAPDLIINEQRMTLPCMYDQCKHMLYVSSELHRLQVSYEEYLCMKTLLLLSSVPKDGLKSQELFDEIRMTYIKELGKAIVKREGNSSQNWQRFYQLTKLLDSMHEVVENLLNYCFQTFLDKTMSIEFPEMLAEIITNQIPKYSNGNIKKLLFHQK

[2] = molecular target: T2, Androgen receptor (Homo sapiens, UniProt P10275)
T2 sequence (P10275 whole entry): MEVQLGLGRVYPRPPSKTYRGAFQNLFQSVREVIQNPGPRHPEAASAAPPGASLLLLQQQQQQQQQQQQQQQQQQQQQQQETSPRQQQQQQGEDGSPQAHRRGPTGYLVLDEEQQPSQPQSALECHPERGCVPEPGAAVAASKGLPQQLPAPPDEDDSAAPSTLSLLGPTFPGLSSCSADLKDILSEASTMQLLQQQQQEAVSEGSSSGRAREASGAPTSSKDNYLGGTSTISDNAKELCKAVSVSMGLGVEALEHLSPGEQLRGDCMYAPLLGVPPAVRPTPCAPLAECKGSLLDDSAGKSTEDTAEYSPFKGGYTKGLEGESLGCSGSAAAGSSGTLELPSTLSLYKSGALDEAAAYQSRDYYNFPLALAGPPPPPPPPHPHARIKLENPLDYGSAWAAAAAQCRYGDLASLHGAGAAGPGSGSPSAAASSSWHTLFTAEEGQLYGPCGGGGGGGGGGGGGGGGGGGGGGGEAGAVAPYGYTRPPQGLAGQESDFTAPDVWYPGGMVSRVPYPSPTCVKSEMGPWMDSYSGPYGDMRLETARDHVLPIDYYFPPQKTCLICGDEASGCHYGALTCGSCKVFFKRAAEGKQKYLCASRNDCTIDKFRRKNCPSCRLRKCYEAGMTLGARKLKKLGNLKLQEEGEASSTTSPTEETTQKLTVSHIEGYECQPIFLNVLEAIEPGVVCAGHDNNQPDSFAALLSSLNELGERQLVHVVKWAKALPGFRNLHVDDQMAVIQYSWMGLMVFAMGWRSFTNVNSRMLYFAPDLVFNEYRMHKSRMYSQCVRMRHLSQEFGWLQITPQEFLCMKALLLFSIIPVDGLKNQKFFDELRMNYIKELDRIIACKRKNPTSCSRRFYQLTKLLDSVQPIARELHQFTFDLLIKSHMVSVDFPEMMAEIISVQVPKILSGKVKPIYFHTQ

[3] = molecular target: T3, Glucocorticoid receptor (Rattus norvegicus, UniProt P06536); assay: Inhibition of [3H]dexamethasone binding to rat glucocorticoid receptor
T3 sequence (P06536 whole entry): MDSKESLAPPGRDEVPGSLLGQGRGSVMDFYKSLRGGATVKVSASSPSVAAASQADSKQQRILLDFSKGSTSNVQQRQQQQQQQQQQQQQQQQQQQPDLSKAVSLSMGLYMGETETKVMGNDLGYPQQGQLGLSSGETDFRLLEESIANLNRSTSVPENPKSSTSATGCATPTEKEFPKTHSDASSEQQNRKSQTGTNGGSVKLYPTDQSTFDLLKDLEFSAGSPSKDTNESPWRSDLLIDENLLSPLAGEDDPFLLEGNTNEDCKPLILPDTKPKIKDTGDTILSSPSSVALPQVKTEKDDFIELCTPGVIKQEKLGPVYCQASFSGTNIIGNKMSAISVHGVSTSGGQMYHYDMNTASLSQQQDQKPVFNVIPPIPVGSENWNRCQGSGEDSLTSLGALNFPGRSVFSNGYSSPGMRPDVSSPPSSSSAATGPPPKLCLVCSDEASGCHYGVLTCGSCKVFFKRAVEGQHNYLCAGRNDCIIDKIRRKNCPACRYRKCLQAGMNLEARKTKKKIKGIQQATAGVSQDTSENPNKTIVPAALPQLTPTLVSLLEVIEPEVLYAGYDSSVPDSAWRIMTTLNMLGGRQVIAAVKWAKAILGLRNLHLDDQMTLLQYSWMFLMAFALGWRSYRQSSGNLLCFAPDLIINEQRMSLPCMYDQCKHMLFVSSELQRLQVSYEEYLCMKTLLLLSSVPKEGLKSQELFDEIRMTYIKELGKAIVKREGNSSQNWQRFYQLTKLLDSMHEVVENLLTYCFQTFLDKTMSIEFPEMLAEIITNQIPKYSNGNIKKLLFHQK

[4] = Half life period of the compound in human liver microsomes was determined; assay type: ADME, Microsome
[5] = Half life period of the compound in human hepatocytes was determined; assay type: ADME, cell-based, Liver, Hepatocyte
[6] = Compound level in plasma in SD rats after 1 hr of 5 mg/kg i.v. dose; assay type: ADME, organism-based; design: dose 5 mg/kg, route intravenous; details: Sprague-Dawley, rat, iv, read-out: Level
[7] = Half life period of the compound in rat hepatocytes was determined; assay type: ADME, cell-based, Liver, Hepatocyte
[8] = Compound level in liver in SD rats after 7 hr of 5 mg/kg i.v. dose; assay type: ADME, organism-based; design: dose 5 mg/kg, route intravenous; details: Sprague-Dawley, rat, iv, read-out: Level
[9] = Compound level in liver in ob/ob mice after 13 days of 100 mpk oral dose of compound; assay type: ADME; details: mouse, 100 mg/kg, read-out: Level
[10] = Compound level in liver in SD rats after 1 hr of 5 mg/kg i.v. dose; assay type: ADME, organism-based; design: dose 5 mg/kg, route intravenous; details: Sprague-Dawley, rat, iv, read-out: Level
[11] = Compound level in plasma in SD rats after 7 hr of 5 mg/kg i.v. dose; assay type: ADME, organism-based; design: dose 5 mg/kg, route intravenous; details: Sprague-Dawley, rat, iv, read-out: Level
[12] = molecular target: T4, Glucocorticoid receptor (Homo sapiens, UniProt P04150); assay: Antagonistic activity against 5 nM Dexamethasone induced glucocorticoid receptor mediated alkaline phosphatase activity; assay type: functional
T4 sequence (P04150 whole entry): T1 sequence (whole entry)

[13] = Compound level in liver in ob/ob mice after 13 days of […] mpk oral dose of compound; assay type: ADME, tissue-based; details: mouse, 30 mg/kg, read-out: Level
[14] = Plasma protein binding of tritium labeled compound in mouse plasma was determined; assay type: ADME, cell-free; details: read-out: Protein binding (converted)

Q: Which Agonistic activity [1] does the source give for `Cc1c(NS(C)(=O)=O)cccc1N(Cc1ccccc1)Cc1ccc(Oc2cccc(OCCCC(=O)NCCCC(=O)O)c2)cc1` here?
A: inactive

Q: What about the IC50 [2] of the same compound?
A: 1600 nM

Q: What about the IC50 [3] of the same compound?
A: 1 nM

Q: For `Cc1c(NS(C)(=O)=O)cccc1N(Cc1ccccc1)Cc1ccc(Oc2ccc(OCC(=O)O)cc2)cc1`, which half-life [4] is on record?
A: 8.9 h

Q: What about the half-life [5] of the same compound?
A: 31.1 h

Q: What about the concentration at 1 h [6] of the same compound?
A: 30 ng/mL

Q: And the half-life [7]?
A: 9.9 h

Q: And the IC50 [2]?
A: 11700 nM

Q: What about the concentration at 7 h [8] of the same compound?
A: 3800 ng/g

Q: And the IC50 [3]?
A: 2.1 nM

Q: What about the concentration at 312 h [9] of the same compound?
A: 207000 ng/g

Q: And the concentration at 1 h [10]?
A: 20000 ng/g

Q: And the concentration at 7 h [11]?
A: 10 ng/mL

Q: With `CC#C[C@]1(O)CC[C@H]2[C@@H]3CCC4=CC(=O)CC[C@]4(Cc4ccc(C)cc4)C3=CC[C@@]21C` as the compound, how does the IC50 [12] read?
A: 43 nM

Q: What about the half-life [7] of the same compound?
A: < 0.2 h

Q: And the IC50 [2]?
A: 6500 nM

Q: What about the IC50 [3] of the same compound?
A: 2.4 nM

Q: With `Cc1c(NS(C)(=O)=O)cccc1N(Cc1ccc(Oc2ccc(Cl)c(OCC(=O)O)c2)cc1)Cc1ccc(F)cc1F` as the compound, how does the IC50 [12] read?
A: 500 nM

Q: What about the Agonistic activity [1] of the same compound?
A: inactive

Q: And the IC50 [2]?
A: 3600 nM

Q: What about the IC50 [3] of the same compound?
A: 1.9 nM

Q: With `Cc1c(NS(C)(=O)=O)cccc1N(Cc1ccc(Oc2ccc(F)c(OCC(=O)O)c2)cc1)Cc1ccc(F)cc1F` as the compound, how does the half-life [4] read?
A: 2.3 h

Q: What about the half-life [5] of the same compound?
A: 9.1 h

Q: What about the concentration at 1 h [6] of the same compound?
A: 1600 ng/mL

Q: And the IC50 [12]?
A: 440 nM

Q: What about the Agonistic activity [1] of the same compound?
A: inactive

Q: What about the half-life [7] of the same compound?
A: 6.5 h

Q: What about the concentration at 7 h [8] of the same compound?
A: 40000 ng/g

Q: And the concentration at 312 h [13]?
A: 20000 ng/g

Q: And the fraction unbound [14]?
A: 0.003

Q: And the IC50 [3]?
A: 0.2 nM

Q: And the concentration at 312 h [9]?
A: 157000 ng/g

Q: What about the concentration at 1 h [10] of the same compound?
A: 74000 ng/g

Q: And the concentration at 7 h [11]?
A: 650 ng/mL

Reference: ChEMBL document CHEMBL1141148, “Antidiabetic activity of passive nonsteroidal glucocorticoid receptor modulators” (J Med Chem, 2005)
